Experimental data reported in publication PMC8804135 (Neurotherapeutics, 2021).
Numbered stars: 1 amine (or outer) side, 2 acyl side, 3 side chain; on linkers, the order of the positions; unused ones are H or OH. Bridge positions count the residues as written; N and C are the ends. Square brackets hold non-standard residues; d marks the D form. Peptide text beside a SMILES is read from it. dAbu(3S-yl) = C[C@@H]([C@@H](N[*:1])C(=O)[*:2])[*:3]; pGlu = O=C1CC[C@@H](C(=O)O)N1

Columns and labels:
[1] = In vitro stability in brain plasma; assay type: in vitro ADME, rat; settings: Sprague-Dawley, rat, other tissue homogenate, pH 7.4
Description: The method to study the stability of peptides in brain plasma is described in the Supplementary material. […]
receptor-2-selective agonist reduces acute food intake
Anneke Kuipers1, Márta Balasko2, Erika Pétervári2, Andreas Koller3,4, Susanne M.
Brunner3,4, Gert N. Moll1,5, Barbara Kofler 3*
In vitro stability in brain plasma
Sprague dawley rat brain lyophilized powder was purchased from MyBioSource (San Diego, USA). One gram brain powder was reconstituted in 10 ml PBS, 0.5 ml 2 M Tris (pH=8), 100 µl Triton X -100 and 10 mg SDS. The solution was centrifuged and the supernatant was collected, aliquoted and stored at -20 °C until usage. To assess the stability, 10 µM GAL-(1-15) and 10 µM M89b were incubated in 1% brain plasma buffered with 200 mM phosphate buffer (pH 7.4) at 37°C for up to 6 hours. At various time points […]
20 µl 100% ACN. Samples were centrifuged and kept on ice. Full-length peptides were quantified by using a C12 column (C12 RP 250 x 4.60 mm column, Phenomenex) on a JASCO HPLC system and applying a gradient of 20 -90% ACN in 0.1% TFA for 30 minutes.
Peptides were detected at 280 nm. A280 areas in chromatograms of the corresponding GAL-(1-15) and M89b full-length peptide peaks were used to determine the amount of peptide left after incubation with cerebrospinal fluid at the different time points. Peptide peaks were determined using JASCO-Borwin Chromatography software (v1.50).

[2] = system: non-fasted male Wistar rats; experiment: Food intake and body weight after intranasal application of peptides; assay type: in vivo, rat
Description: For intranasal delivery, 1 mg of M89b was first dissolved in 566 µl 2,2,2-trifluorethanol, 566 µl 10% (2-hydroxypropyl)-ß-cyclodextrin (HBC), and 1 µl acetic acid and incubated at 60 °C for 20 min. Another 566 µl of 10% HBC were added. The peptide was then dried in a speed-vac, and the dried pellet was dissolved in 1132 µl water by vortexing and incubation at 60 °C. M871 and GALP were purchased from GL Biochem. M871 was dissolved in saline containing 10% HBC. GALP was dissolved in saline containing 5% α-cyclodextrin.
In vivo experiments involving intranasal treatment of rats and measurement of feeding behavior were performed at the Institute for Translational Medicine, University of Pécs, Pécs, Hungary. Experiments were approved by the National Ethical Council for Animal Research (permit number, BA 02/2000–11/2018). They were also in accord with the directives of the European Communities Council on the protection of animals used for scientific purposes (86/609/EEC, Directive 2010/63/EU of the European Parliament and of the Council).
Spontaneous food intake was measured in non-fasted male Wistar rats (3 months old) for 24 h following intranasal application of peptide solutions by an automated FeedScale System (Columbus, OH). Each group of animals (6–9 rats/group) was habituated to the individual chambers of the FeedScale System until daily food intake and changes in the body weight of the animals had normalized. This habituation, which lasted for a minimum of 2 weeks, allowed adaptation to the environment, to the powdered chow and to the feeder. This powdered form of chow prevented food hoarding. A special digital scale under the cages provided precise automated measurement and continuous recording of the amount of consumed food. During the measurement of the cumulative 24 h food intake, data were collected every 30 min.
Intranasal applications were performed at 06:00 PM at the onset of the active nighttime period of rats. First, the body weight of animals was recorded, and then they were intraperitoneally anesthetized with ketamine (52 mg/kg) and xylazine (9 mg/kg). For the intranasal application of peptides, rats were placed on their backs, and 25–30 µl of peptide solution was injected gently per nostril (total volume of 50–60 μl per rat depending on the administered peptides) using a 10-μl pipette. The following solutions were applied: M89b (25 nmol in 60 µl saline containing 10% HBC); GALP (17.5 nmol in 50 µl saline containing 5% α-cyclodextrin); M871 (219 nmol in 60 µl 10% HBC); and M89b + M871 (25 nmol M89b + 219 nmol M871 in 60 µl 10% HBC). […] At 24 h post-treatment, the body weight of the animals was measured.
Statistical analysis was performed with SPSS 11.0. […] Body weight data were analyzed by applying a one-way ANOVA with Tukey’s post hoc test. […]

[3] = target: T1, GAL1R (Homo sapiens, UniProt P47211); experiment: Label-free dynamic mass redistribution assay, SY5Y-R1 cells; assay type: cell-based; set-up: expressed in transfected cells; settings: GAL1R-expressing SH-SY5Y cells; 1.6 nM to 5 µM
T1 sequence (P47211 1-349): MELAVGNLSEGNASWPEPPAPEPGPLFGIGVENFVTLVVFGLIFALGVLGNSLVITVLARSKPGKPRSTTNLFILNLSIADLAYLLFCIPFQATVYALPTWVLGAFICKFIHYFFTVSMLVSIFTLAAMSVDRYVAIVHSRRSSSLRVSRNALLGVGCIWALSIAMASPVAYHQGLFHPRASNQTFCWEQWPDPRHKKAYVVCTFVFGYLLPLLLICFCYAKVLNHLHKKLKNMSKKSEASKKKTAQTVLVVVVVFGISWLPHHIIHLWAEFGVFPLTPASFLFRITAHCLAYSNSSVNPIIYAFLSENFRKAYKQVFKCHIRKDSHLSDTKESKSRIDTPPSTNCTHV
Description: SH-SY5Y cells stably expressing low levels of either human GAL1R (SY5Y-R1) or GAL2R (SY5Y-R2) and HEK293 cells expressing human GAL3R (HEK-R3) were seeded in EnSpire LFC-[…] well plates (Perkin Elmer) at a concentration of 12,000 cells per well and cultured overnight at 37 °C and 5% CO2. The medium was aspired, and the cells were washed four times with Hank’s balanced salt solution (HBSS) (+ calcium, + magnesium) supplemented with HEPES (20 mM), and the final volume was adjusted to 30 µl per well. The plate was allowed to equilibrate to assay temperature for 1 h in the EnSpire multimode reader (Perkin Elmer). Galanin-(1–30) (GL Biochem) was dissolved and diluted in water. […] A baseline read was first generated by taking 4 measurements before ligands were added. The plate was measured between 30 and 70 repeats, and each treatment was performed in triplicate. […] EC50 values were calculated using Prism 8.2.0 (GraphPad Software Inc.). The values are provided as means of all independent experiments.

For CC(C)C[C@H](NC(=O)[C@H](CC(C)C)NC(=O)[C@H](Cc1ccc(O)cc1)NC(=O)CNC(=O)[C@H](C)NC(=O)[C@H](C)NC(=O)[C@H](CC(N)=O)NC(=O)[C@H](CC(C)C)NC(=O)[C@H](CC(N)=O)NC(=O)[C@H](Cc1c[nH]c2ccccc12)NC(=O)[C@@H]1CCC(=O)N1)C(=O)N[C@@H](C)C(=O)N[C@H]1C(=O)N[C@@H](Cc2c[nH]cn2)C(=O)N[C@@H](C)C(=O)N[C@H](C(=O)NCC(=O)O)CS[C@H]1C [Variant M89b, G1pE-T3N-S6A-G12A-methyllanthionine[13–16]-galanin-(1–17)] ([pGlu]WNLNAAGYLLA[dAbu(3S-yl)]HACG-OH; thioether 13-16; C-terminus assumed), the remaining at 6 h, 10 µM [1] was roughly 85%, the “Loss of initial body weight at 24 h post-treatment” value ([2]; intranasal 25 nmol in 10% HBC, p = 0.009 vs. vehicle) was 2.6% and the “Reduction of 24 h food intake compared to vehicle” value ([2]; intranasal 25 nmol in 60 µl saline with 10% HBC, p = 0.006 vs vehicle) was 23%. The “Stimulation of GAL1R, DMR in SY5YR1 cells” value [3] was “stimulate GAL2R only, not GAL1R”.
